Measurements reported in patent US10167262B2, “Herbicidal substituted 3-arylpyrazoles” (FMC CORPORATION, priority 2014, dated 2019).

Each compound was assayed on large (Lg) crabgrass (Digitaria sanguinalis) (assay: Test A pre-/postemergence greenhouse herbicide test, visual injury rating 0-100). Settings: Postemergence, 125 g ai/ha.
Type: in vivo
Source text: (§1) Seeds of plant species selected from barnyardgrass (Echinochloa crus-galli), large (Lg) crabgrass (Digitaria sanguinalis), giant foxtail (Setaria faberii), morningglory (Ipomoea spp.), pigweed (Amaranthus retroflexus), velvetleaf (Abutilon theophrasti), wheat (Triticum aestivum), and corn (Zea mays) were planted into a blend of loam soil and sand and treated preemergence with a directed soil spray using test chemicals formulated in a non-phytotoxic solvent mixture which included a surfactant. At the same time these species were also treated with postemergence applications of test chemicals formulated in the same manner. Plants ranged in height from 2 to 10 cm and were in the one- to two-leaf stage for the postemergence treatment. Treated plants and untreated controls were maintained in a greenhouse for approximately 10 days, after which time all treated plants were compared to untreated controls and visually evaluated for injury. Plant response ratings, summarized in Table A, are based on a 0 to 100 scale where 0 is no effect and 100 is complete control. A dash (-) response means no test result.

SMILES | Plant response rating (0 to 100 scale), Crabgrass, Large
Clc1cc(Cl)cc(-c2n[nH]cc2C2(c3ccccc3)SCCCS2)c1 [Compound 63] | 0

Same assay, conditions: Postemergence, 500 g ai/ha

SMILES | Plant response rating (0 to 100 scale), Crabgrass, Large
Clc1cc(Cl)cc(-c2n[nH]cc2C2(c3ccccc3)SCCCS2)c1 [Compound 63] | 0

Same assay, conditions: Preemergence, 125 g ai/ha

SMILES | Crabgrass, Large plant response rating (0 = no effect, 100 = complete control)
Clc1cc(Cl)cc(-c2n[nH]cc2C2(c3ccccc3)SCCCS2)c1 [Compound 63] | 0

Same assay, conditions: Preemergence, 500 g ai/ha

SMILES | Plant response rating (0 to 100 scale), Crabgrass, Large
Clc1cc(Cl)cc(-c2n[nH]cc2C2(c3ccccc3)SCCCS2)c1 [Compound 63] | 0

These compounds were tested on barnyardgrass (Echinochloa crus-galli) in the same assay as above. Settings: Postemergence, 125 g ai/ha.
Type: in vivo
Source text: as §1

SMILES | Plant response rating (0 to 100 scale), Barnyardgrass
Clc1cc(Cl)cc(-c2n[nH]cc2C2(c3ccccc3)SCCCS2)c1 [Compound 63] | 0

Same assay, conditions: Postemergence, 500 g ai/ha

SMILES | Plant response rating (0 to 100 scale), Barnyardgrass
Clc1cc(Cl)cc(-c2n[nH]cc2C2(c3ccccc3)SCCCS2)c1 [Compound 63] | 0

Same assay, conditions: Preemergence, 125 g ai/ha

SMILES | Barnyardgrass plant response rating (0 = no effect, 100 = complete control)
Clc1cc(Cl)cc(-c2n[nH]cc2C2(c3ccccc3)SCCCS2)c1 [Compound 63] | 0

Same assay, conditions: Preemergence, 500 g ai/ha

SMILES | Plant response rating (0 to 100 scale), Barnyardgrass
Clc1cc(Cl)cc(-c2n[nH]cc2C2(c3ccccc3)SCCCS2)c1 [Compound 63] | 0

These compounds were tested on wheat (Triticum aestivum) in the same assay as above. Settings: Postemergence, 125 g ai/ha.
Type: in vivo
Source text: as §1

SMILES | Plant response rating (0 to 100 scale), Wheat
Clc1cc(Cl)cc(-c2n[nH]cc2C2(c3ccccc3)SCCCS2)c1 [Compound 63] | 0

Same assay, conditions: Postemergence, 500 g ai/ha

SMILES | Plant response rating (0 to 100 scale), Wheat
Clc1cc(Cl)cc(-c2n[nH]cc2C2(c3ccccc3)SCCCS2)c1 [Compound 63] | 0

Same assay, conditions: Preemergence, 125 g ai/ha

SMILES | Wheat plant response rating (0 = no effect, 100 = complete control)
Clc1cc(Cl)cc(-c2n[nH]cc2C2(c3ccccc3)SCCCS2)c1 [Compound 63] | 0

The compounds below were run on corn (Zea mays) in the same assay as above. Settings: Postemergence, 125 g ai/ha.
Type: in vivo
Source text: as §1

SMILES | Plant response rating (0 to 100 scale), Corn
Clc1cc(Cl)cc(-c2n[nH]cc2C2(c3ccccc3)SCCCS2)c1 [Compound 63] | 0

Same assay, conditions: Postemergence, 500 g ai/ha

SMILES | Plant response rating (0 to 100 scale), Corn
Clc1cc(Cl)cc(-c2n[nH]cc2C2(c3ccccc3)SCCCS2)c1 [Compound 63] | 0

Same assay, conditions: Preemergence, 125 g ai/ha

SMILES | Corn plant response rating (0 = no effect, 100 = complete control)
Clc1cc(Cl)cc(-c2n[nH]cc2C2(c3ccccc3)SCCCS2)c1 [Compound 63] | 0

Same assay, conditions: Preemergence, 500 g ai/ha

SMILES | Plant response rating (0 to 100 scale), Corn
Clc1cc(Cl)cc(-c2n[nH]cc2C2(c3ccccc3)SCCCS2)c1 [Compound 63] | 0

These compounds were tested on giant foxtail (Setaria faberii) in the same assay as above. Settings: Postemergence, 125 g ai/ha.
Type: in vivo
Source text: as §1

SMILES | Plant response rating (0 to 100 scale), Foxtail, Giant
Clc1cc(Cl)cc(-c2n[nH]cc2C2(c3ccccc3)SCCCS2)c1 [Compound 63] | 0

Same assay, conditions: Postemergence, 500 g ai/ha

SMILES | Plant response rating (0 to 100 scale), Foxtail, Giant
Clc1cc(Cl)cc(-c2n[nH]cc2C2(c3ccccc3)SCCCS2)c1 [Compound 63] | 0

Same assay, conditions: Preemergence, 125 g ai/ha

SMILES | Foxtail, Giant plant response rating (0 = no effect, 100 = complete control)
Clc1cc(Cl)cc(-c2n[nH]cc2C2(c3ccccc3)SCCCS2)c1 [Compound 63] | 0

Same assay, conditions: Preemergence, 500 g ai/ha

SMILES | Plant response rating (0 to 100 scale), Foxtail, Giant
Clc1cc(Cl)cc(-c2n[nH]cc2C2(c3ccccc3)SCCCS2)c1 [Compound 63] | 0

The compounds below were run on morningglory (Ipomoea spp.) in the same assay as above. Settings: Postemergence, 125 g ai/ha.
Type: in vivo
Source text: as §1

SMILES | Plant response rating (0 to 100 scale), Morningglory
Clc1cc(Cl)cc(-c2n[nH]cc2C2(c3ccccc3)SCCCS2)c1 [Compound 63] | 0

Same assay, conditions: Postemergence, 500 g ai/ha

SMILES | Plant response rating (0 to 100 scale), Morningglory
Clc1cc(Cl)cc(-c2n[nH]cc2C2(c3ccccc3)SCCCS2)c1 [Compound 63] | 0

Same assay, conditions: Preemergence, 125 g ai/ha

SMILES | Morningglory plant response rating (0 = no effect, 100 = complete control)
Clc1cc(Cl)cc(-c2n[nH]cc2C2(c3ccccc3)SCCCS2)c1 [Compound 63] | 0

Same assay, conditions: Preemergence, 500 g ai/ha

SMILES | Plant response rating (0 to 100 scale), Morningglory
Clc1cc(Cl)cc(-c2n[nH]cc2C2(c3ccccc3)SCCCS2)c1 [Compound 63] | 0

Each compound was assayed on velvetleaf (Abutilon theophrasti) in the same assay as above. Settings: Postemergence, 125 g ai/ha.
Type: in vivo
Source text: as §1

SMILES | Plant response rating (0 to 100 scale), Velvetleaf
Clc1cc(Cl)cc(-c2n[nH]cc2C2(c3ccccc3)SCCCS2)c1 [Compound 63] | 10

Same assay, conditions: Postemergence, 500 g ai/ha

SMILES | Plant response rating (0 to 100 scale), Velvetleaf
Clc1cc(Cl)cc(-c2n[nH]cc2C2(c3ccccc3)SCCCS2)c1 [Compound 63] | 60

Same assay, conditions: Preemergence, 125 g ai/ha

SMILES | Velvetleaf plant response rating (0 = no effect, 100 = complete control)
Clc1cc(Cl)cc(-c2n[nH]cc2C2(c3ccccc3)SCCCS2)c1 [Compound 63] | 0

Same assay, conditions: Preemergence, 500 g ai/ha

SMILES | Plant response rating (0 to 100 scale), Velvetleaf
Clc1cc(Cl)cc(-c2n[nH]cc2C2(c3ccccc3)SCCCS2)c1 [Compound 63] | 0

What follows are compounds tested on pigweed (Amaranthus retroflexus) in the same assay as above. Settings: Postemergence, 125 g ai/ha.
Type: in vivo
Source text: as §1

SMILES | Plant response rating (0 to 100 scale), Pigweed
Clc1cc(Cl)cc(-c2n[nH]cc2C2(c3ccccc3)SCCCS2)c1 [Compound 63] | 20

Same assay, conditions: Postemergence, 500 g ai/ha

SMILES | Plant response rating (0 to 100 scale), Pigweed
Clc1cc(Cl)cc(-c2n[nH]cc2C2(c3ccccc3)SCCCS2)c1 [Compound 63] | 80

Same assay, conditions: Preemergence, 125 g ai/ha

SMILES | Pigweed plant response rating (0 = no effect, 100 = complete control)
Clc1cc(Cl)cc(-c2n[nH]cc2C2(c3ccccc3)SCCCS2)c1 [Compound 63] | 0

Same assay, conditions: Preemergence, 500 g ai/ha

SMILES | Plant response rating (0 to 100 scale), Pigweed
Clc1cc(Cl)cc(-c2n[nH]cc2C2(c3ccccc3)SCCCS2)c1 [Compound 63] | 60
